# Source: PMC8251769, “Phosphonate as a Stable Zinc‐Binding Group for “Pathoblocker” Inhibitors of Clostridial Collagenase H (ColH)” (Chemmedchem, 2021)
# Target: T1, HDAC-8 (Homo sapiens, UniProt Q9BY41)
# T1 construct: gene HDAC8
# T1 sequence (Q9BY41 1-377): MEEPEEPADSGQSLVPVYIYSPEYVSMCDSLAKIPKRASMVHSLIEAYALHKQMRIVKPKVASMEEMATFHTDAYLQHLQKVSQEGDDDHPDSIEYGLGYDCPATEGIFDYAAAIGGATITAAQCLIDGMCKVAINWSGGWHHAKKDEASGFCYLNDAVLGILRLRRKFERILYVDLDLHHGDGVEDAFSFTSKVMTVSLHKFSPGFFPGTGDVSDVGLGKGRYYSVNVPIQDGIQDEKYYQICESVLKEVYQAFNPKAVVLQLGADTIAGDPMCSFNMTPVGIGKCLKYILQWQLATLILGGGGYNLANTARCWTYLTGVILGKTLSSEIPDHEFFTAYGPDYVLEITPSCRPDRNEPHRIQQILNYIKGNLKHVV
# Test: fluorescence inhibitor screening kit
# Assay type: biochemical
# Settings: read-out: Inhibition [%] at 100 μM compound^[a] / 5 a (thiol)
# Excerpt: fluorescence inhibitor screening kit on HDAC-8
row,Structure (SMILES),inhibition at 100 µM [%]
1,"CC(=O)c1ccc(NC(=O)CS)cc1 [5a, thiol 5 a]",48 ± 5

# Target: T2, MMP-8 (Homo sapiens, UniProt P22894)
# T2 construct: gene MMP8; catalytic domain, AnaSpec
# Test: SensoLyte […] generic MMP activity kit
# Assay type: biochemical
# Settings: read-out: Inhibition [%] at 100 μM compound^[a] / 26 (phosphonate)
# T2 sequence (P22894 100-262 limits assumed): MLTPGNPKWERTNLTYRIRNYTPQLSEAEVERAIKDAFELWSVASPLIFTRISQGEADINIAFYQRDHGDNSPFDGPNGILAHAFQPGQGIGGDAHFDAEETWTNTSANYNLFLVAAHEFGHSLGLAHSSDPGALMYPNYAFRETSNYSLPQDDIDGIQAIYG
row,Structure (SMILES),inhibition at 100 µM [%]
1,"CC(=O)c1ccc(NC(=O)CP(=O)(O)O)cc1 [compound 26, Disodium (2-((4-acetylphenyl)amino)-2-oxoethyl)phosphonate]",36 ± 1

# Target: ColH-PD (peptidase domain of collagenase H) (Hathewaya histolytica, UniProt Q46085)
# Test: biochemical
# Settings: not given
# Chain of ColH-PD (peptidase domain of collagenase H) (Q46085 331-721 limits assumed): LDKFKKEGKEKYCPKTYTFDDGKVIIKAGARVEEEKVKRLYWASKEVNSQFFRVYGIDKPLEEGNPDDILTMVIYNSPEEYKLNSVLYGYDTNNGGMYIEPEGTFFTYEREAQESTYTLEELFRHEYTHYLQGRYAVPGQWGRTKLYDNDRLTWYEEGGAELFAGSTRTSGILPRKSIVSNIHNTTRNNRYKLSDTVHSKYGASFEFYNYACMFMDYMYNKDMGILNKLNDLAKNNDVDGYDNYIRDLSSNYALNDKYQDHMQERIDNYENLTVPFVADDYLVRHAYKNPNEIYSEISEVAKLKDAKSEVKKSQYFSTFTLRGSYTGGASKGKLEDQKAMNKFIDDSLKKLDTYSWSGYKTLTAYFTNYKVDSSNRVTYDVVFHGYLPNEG
row,Structure (SMILES),IC50 [µM]
1,"O=C(CC(=O)Nc1ccccc1)NO [compound 11, N^1-Hydroxy-N^3-phenylmalonamide]",~500
2,"O=C(O)CCC(=O)Nc1ccccc1 [compound 10, 4-Oxo-4-(phenylamino)butanoic acid]",> 500
3,"CC(=O)c1ccc(NC(=O)Cc2nn[nH]n2)cc1 [compound 19, N-(4-Acetylphenyl)-2-(2H-tetrazol-5-yl)acetamide]",22 ± 1
4,"CC(=O)c1ccc(NC(=O)Cn2ncnn2)cc1 [compound 18, N-(4-acetylphenyl)-2-(2H-tetrazol-2-yl)acetamide]",> 500
5,"O=C(O)CC(=O)Nc1ccccc1 [compound 9, 3-Oxo-3-(phenylamino)propanoic acid]",> 500
6,"NC(=O)CC(=O)Nc1ccccc1 [compound 8, N^1-Phenylmalonamide]",> 500
7,"CC(=O)c1ccc(NC(=O)CP(C)(=O)O)cc1 [compound 25, Sodium (2-((4-acetylphenyl)amino)-2-oxoethyl)(methyl)phosphinate]",> 500
8,"CC(=O)c1ccc(NC(=O)Cn2ccnn2)cc1 [compound 14, N-(4-Acetylphenyl)-2-(1H-1,2,3-triazol-1-yl)acetamide]",> 500
9,"CC(=O)c1ccc(NC(=O)Cn2ccnc2)cc1 [compound 15, N-(4-Acetylphenyl)-2-(1H-imidazol-1-yl)acetamide]",448 ± 33
10,"CC(=O)c1ccc(NC(=O)CC#N)cc1 [compound 23, N-(4-Acetylphenyl)-2-cyanoacetamide]",> 500
11,"CC(=O)c1ccc(NC(=O)CS(=O)(=O)O)cc1 [compound 24, Sodium 2-((4-acetylphenyl)amino)-2-oxoethane-1-sulfonate]",> 500
12,"CC(=O)c1ccc(NC(=O)Cn2cnnn2)cc1 [compound 17, N-(4-Acetylphenyl)-2-(1H-tetrazol-1-yl)acetamide]",> 500
13,"CC(=O)c1ccc(NC(=O)Cn2cncn2)cc1 [compound 16, N-(4-Acetylphenyl)-2-(1H-1,2,4-triazol-1-yl)acetamide]",> 500
14,"CC(=O)c1ccc(NC(=O)Cc2c[nH]cn2)cc1 [compound 20, N-(4-Acetylphenyl)-2-(1H-imidazol-4-yl)acetamide]",> 500
15,"CCOP(C)(=O)CC(=O)Nc1ccc(C(C)=O)cc1 (centres unmarked) [compound 27, Ethyl (2-((4-acetylphenyl)amino)-2-oxoethyl)(methyl)phosphinate]",> 500

# Same assay, conditions: read-out: IC50
row,Structure (SMILES),IC50 [µM]
1,"CC(=O)c1ccc(NC(=O)CP(=O)(O)O)cc1 [compound 26, Disodium (2-((4-acetylphenyl)amino)-2-oxoethyl)phosphonate]",7 ± 1

# Target: T3, MMP-14 (Homo sapiens, UniProt P50281)
# T3 construct: gene MMP14; catalytic domain, AnaSpec
# Test: SensoLyte […] generic MMP activity kit
# Assay type: biochemical
# Settings: read-out: Inhibition [%] at 100 μM compound^[a] / 26 (phosphonate)
row,Structure (SMILES),inhibition at 100 µM [%]
1,"CC(=O)c1ccc(NC(=O)CP(=O)(O)O)cc1 [compound 26, Disodium (2-((4-acetylphenyl)amino)-2-oxoethyl)phosphonate]",47 ± 13

# Target: T4, HDAC-3 (Homo sapiens, UniProt O15379)
# T4 construct: gene HDAC3
# Test: fluorescence inhibitor screening kit
# Assay type: biochemical
# Settings: read-out: Inhibition [%] at 100 μM compound^[a] / 5 a (thiol)
# Excerpt: fluorescence inhibitor screening kit on HDAC-3
# T4 sequence (O15379 whole entry): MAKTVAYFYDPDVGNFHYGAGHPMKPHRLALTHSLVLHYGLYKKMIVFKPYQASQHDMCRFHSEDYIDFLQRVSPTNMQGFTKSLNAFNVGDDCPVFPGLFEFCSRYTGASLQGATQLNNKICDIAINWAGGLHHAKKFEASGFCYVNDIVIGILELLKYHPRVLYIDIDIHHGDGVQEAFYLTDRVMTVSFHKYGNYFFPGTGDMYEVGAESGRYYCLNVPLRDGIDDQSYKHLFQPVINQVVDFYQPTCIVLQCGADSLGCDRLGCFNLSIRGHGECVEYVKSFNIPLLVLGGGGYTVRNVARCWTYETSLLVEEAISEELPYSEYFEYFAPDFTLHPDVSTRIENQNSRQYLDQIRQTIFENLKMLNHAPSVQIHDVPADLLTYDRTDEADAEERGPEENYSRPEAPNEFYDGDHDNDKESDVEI
row,Structure (SMILES),inhibition at 100 µM [%]
1,"CC(=O)c1ccc(NC(=O)CS)cc1 [5a, thiol 5 a]",51 ± 7
